Test results from US20230104936A1, “TRPML MODULATORS” (Casma Therapeutics, Inc., priority 2019, published 2023).

Tested on: TFEB
Assay: TFEB nuclear translocation assay, HeLa wt cells
Type: cell-based
Details: Homo sapiens, HeLa, 2 h, 2 hrs compound treatment, Table 1 does not say HeLa wt or TRPML1 KO
Procedure, shortened: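 Using 20× epifluorescence of fixed, anti-TFEB-stained HeLa wt cells treated 2 hrs with compound, nuclear versus perinuclear ring intensity was quantified over four fields per well, yielding AC50 values.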

| SMILES | AC50 [µM] |
| --- | --- |
| CN(C)S(=O)(=O)c1ccc(S(=O)(=O)Nc2ccccc2N2CCC(C)(c3ccc(Cl)cc3)CC2)cc1 [Compound A-184, N4-{2-[4-(4-chlorophenyl)-4-methylpiperidin-1-yl]phenyl}-N1,N1-dimethylbenzene-1,4-disulfonamide] | ≤ 2 |
| CC(c1cccc(F)c1N1CCC(CN2CCC(F)(F)C2)CC1)S(=O)(=O)c1ccc(S(=O)(=O)N(C)C)cc1 (stereo not drawn) [Compound A-802, 4-[1-(2-{4-[(3,3-difluoropyrrolidin-1-yl)methyl]piperidin-1-yl}-3-fluorophenyl)ethanesulfonyl]-N,N-dimethylbenzene-1-sulfonamide] | ≤ 2 |
| CN(C)S(=O)(=O)c1ccc(S(=O)(=O)Nc2ccccc2N2CCC(C)(C(C)(C)O)CC2)cc1 [Compound A-522, N1-(2-(4-(2-hydroxypropan-2-yl)-4-methylpiperidin-1-yl)phenyl)-N4,N4-dimethylbenzene-1,4-disulfonamide] | 2.01 to 8 |
| Cc1ccc(S(=O)(=O)C(C)c2cccc(F)c2N2CCC(CN3C4CCC3COC4)CC2)cc1 (stereo not drawn) [Compound A-905, 8-[(1-{2-fluoro-6-[1-(4-methylbenzenesulfonyl)ethyl]phenyl}piperidin-4-yl)methyl]-3-oxa-8-azabicyclo[3.2.1]octane] | ≤ 2 |
| CN(C)S(=O)(=O)c1ccc(S(=O)(=O)Nc2ccccc2N2CCC(COC(F)F)CC2)cc1 [Compound A-543, N4-(2-{4-[(difluoromethoxy)methyl]piperidin-1-yl}phenyl)-N1,N1-dimethylbenzene-1,4-disulfonamide] | ≤ 2 |
| COc1ccc(S(=O)(=O)Nc2ccccc2N2CCN(Cc3ccc(F)cc3F)CC2)cc1 [Compound A-194, N-(2-{4-[(2,4-difluorophenyl)methyl]piperazin-1-yl}phenyl)-4-methoxybenzene-1-sulfonamide] | ≥ 10 |
| CC(C)Oc1ccc(S(=O)(=O)Nc2cccc(Cl)c2N2CCOCC2)cc1 [Compound A-457, N-[3-chloro-2-(morpholin-4-yl)phenyl]-4-(propan-2-yloxy)benzene-1-sulfonamide] | 2.01 to 8 |
| CC(C)(C)C(=O)N1CCN(c2ccccc2NS(=O)(=O)c2ccc(S(F)(F)(F)(F)F)cc2)CC1 [Compound A-575, N-{2-[4-(2,2-dimethylpropanoyl)piperazin-1-yl]phenyl}-4-(pentafluoro-λ^6-sulfanyl)benzene-1-sulfonamide] | 8.01 to 9.99 |
| CC(c1cccc(F)c1N1CCC(CN2C3COCC2C3)CC1)S(=O)(=O)c1ccc(S(=O)(=O)N(C)C)cc1 [Compound A-869, rel-4-[(1R)-1-{3-fluoro-2-[4-({3-oxa-6-azabicyclo[3.1.1]heptan-6-yl}methyl)piperidin-1-yl]phenyl}ethanesulfonyl]-N,N-dimethylbenzene-1-sulfonamide] | 2.01 to 8 |
| CN(C)S(=O)(=O)c1ccc(S(=O)(=O)Nc2cc(Cl)ccc2N2CCOCC2)nc1 [Compound A-330, N2-[5-chloro-2-(morpholin-4-yl)phenyl]-N5,N5-dimethylpyridine-2,5-disulfonamide] | ≥ 10 |
| CC(C)C(=O)N1CCN(c2ccccc2NS(=O)(=O)c2ccc(S(=O)(=O)N(C)C)cc2)CC1 [Compound A-322, N1,N1-dimethyl-N4-{2-[4-(2-methylpropanoyl)piperazin-1-yl]phenyl}benzene-1,4-disulfonamide] | 8.01 to 9.99 |
| CN(C)S(=O)(=O)c1ccc(S(=O)(=O)Nc2ccccc2N2CCC(C(C)(C)O)CC2)cc1 [Compound A-725, N4-{2-[4-(2-hydroxypropan-2-yl)piperidin-1-yl]phenyl}-N1,N1-dimethylbenzene-1,4-disulfonamide] | 8.01 to 9.99 |
| CN(C)S(=O)(=O)c1ccc(S(=O)(=O)n2ccc(C3CCN(c4ncc(Cl)cc4F)CC3)n2)cc1 [Compound A-96, 4-((3-(1-(5-chloro-3-fluoropyridin-2-yl)piperidin-4-yl)-1H-pyrazol-1-yl)sulfonyl)-N,N-dimethylbenzenesulfonamide] | ≥ 10 |
| COC1(C(=O)N2CCN(c3ccccc3NS(=O)(=O)c3ccc(S(=O)(=O)N(C)C)cc3)CC2)CCCC1 [Compound A-444, N4-{2-[4-(1-methoxycyclopentanecarbonyl)piperazin-1-yl]phenyl}-N1,N1-dimethylbenzene-1,4-disulfonamide] | ≤ 2 |
| CN(C)S(=O)(=O)c1ccc(S(=O)(=O)Nc2ccccc2N2CCCN(C(=O)C(C)(C)C)CC2)cc1 [Compound A-480, N4-{2-[4-(2,2-dimethylpropanoyl)-1,4-diazepan-1-yl]phenyl}-N1,N1-dimethylbenzene-1,4-disulfonamide] | 2.01 to 8 |
| CN(C)S(=O)(=O)c1ccc(S(=O)(=O)Nc2ccccc2N2CCCC3(COC3)C2)cc1 [Compound A-507, N1,N1-dimethyl-N4-(2-{2-oxa-6-azaspiro[3.5]nonan-6-yl}phenyl)benzene-1,4-disulfonamide] | 2.01 to 8 |
| CN(C)S(=O)(=O)c1ccc(S(=O)(=O)Nc2ccccc2N2CCC(C)(c3ccc(Cl)cc3F)CC2)cc1 [Compound A-204, N4-{2-[4-(4-chloro-2-fluorophenyl)-4-methylpiperidin-1-yl]phenyl}-N1,N1-dimethylbenzene-1,4-disulfonamide] | ≤ 2 |

| SMILES | AC50 [µM] |
| --- | --- |
| CC1(C)CC2(CCN(c3ccccc3NS(=O)(=O)c3cccc(C4CC4)c3)CC2)CO1 [Compound A-669, 3-cyclopropyl-N-(2-{3,3-dimethyl-2-oxa-8-azaspiro[4.5]decan-8-yl}phenyl)benzene-1-sulfonamide] | ≤ 2 |
| COCC1(C)CCN(c2ccccc2NS(=O)(=O)c2ccc(S(=O)(=O)N3CCC3)cc2)CC1 [Compound A-736, 4-(azetidine-1-sulfonyl)-N-{2-[4-(methoxymethyl)-4-methylpiperidin-1-yl]phenyl}benzene-1-sulfonamide] | ≤ 2 |
| CS(=O)(=O)c1ccc(S(=O)(=O)Nc2ccccc2N2CCC(O)(c3ccc(F)cc3)CC2)cc1 [Compound A-203, N-{2-[4-(4-fluorophenyl)-4-hydroxypiperidin-1-yl]phenyl}-4-methanesulfonylbenzene-1-sulfonamide] | 2.01 to 8 |
| CN(C)S(=O)(=O)c1ccc(S(=O)(=O)Nc2cccc(F)c2N2CCC(N3CCC34CCCOC4)CC2)cc1 (stereo not drawn) [Compound A-917, N4-[3-fluoro-2-(4-{6-oxa-1-azaspiro[3.5]nonan-1-yl}piperidin-1-yl)phenyl]-N1,N1-dimethylbenzene-1,4-disulfonamide] | 2.01 to 8 |
| CN(C)S(=O)(=O)c1ccc(S(=O)(=O)Nc2ccccc2N2CCC3(CC2)CN(C(=O)OC2CCOC2)c2cc(F)ccc23)cc1 (stereo not drawn) [Compound A-442, oxolan-3-yl 1′-{2-[4-(dimethylsulfamoyl)benzenesulfonamido]phenyl}-6-fluoro-1,2-dihydrospiro[indole-3,4′-piperidine]-1-carboxylate] | ≤ 2 |
| O=C(NC1CC1)c1ccc(S(=O)(=O)Nc2ccccc2N2CCC(c3ccc(Cl)cc3F)CC2)cc1 [Compound A-45, 4-({2-[4-(4-chloro-2-fluorophenyl)piperidin-1-yl]phenyl}sulfamoyl)-N-cyclopropylbenzamide] | 2.01 to 8 |
| CN(C)S(=O)(=O)c1ccc(S(=O)(=O)Nc2cccc(F)c2N2CCC(CN3CCCC(F)(F)C3)CC2)cc1 [Compound A-773, N4-(2-{4-[(3,3-difluoropiperidin-1-yl)methyl]piperidin-1-yl}-3-fluorophenyl)-N1,N1-dimethylbenzene-1,4-disulfonamide] | ≤ 2 |
| CN(C)C1(c2ccc(Cl)cc2F)CCN(c2ccccc2NS(=O)(=O)c2ccc(S(=O)(=O)N(C)C)cc2)CC1 [Compound A-211, N4-{2-[4-(4-chloro-2-fluorophenyl)-4-(dimethylamino)piperidin-1-yl]phenyl}-N1,N1-dimethylbenzene-1,4-disulfonamide] | ≤ 2 |
| COc1ccc(S(=O)(=O)Nc2ccccc2N2CC(Oc3ccc(F)cc3F)C2)cc1 [Compound A-200, N-{2-[3-(2,4-difluorophenoxy)azetidin-1-yl]phenyl}-4-methoxybenzene-1-sulfonamide] | 2.01 to 8 |
| Cc1ccc(NS(=O)(=O)c2ccccc2N2CCC(c3ccc(Cl)cc3F)CC2)cc1 [Compound A-111, 2-(4-(4-chloro-2-fluorophenyl)piperidin-1-yl)-N-(p-tolyl)benzenesulfonamide] | ≥ 10 |
| COc1ccc(S(=O)(=O)Nc2nccnc2N2CCN(c3ncc(Cl)cc3F)CC2)cc1 [Compound A-130, N-{3-[4-(5-chloro-3-fluoropyridin-2-yl)piperazin-1-yl]pyrazin-2-yl}-4-methoxybenzene-1-sulfonamide] | ≥ 10 |
| CN(C)S(=O)(=O)c1ccc(S(=O)(=O)Nc2cccc(F)c2N2CCC(CN3CCC(F)(F)CC3)CC2)cc1 [Compound A-789, N4-(2-{4-[(4,4-difluoropiperidin-1-yl)methyl]piperidin-1-yl}-3-fluorophenyl)-N1,N1-dimethylbenzene-1,4-disulfonamide] | ≤ 2 |
| COCC1(C)CCN(c2ccccc2NS(=O)(=O)Cc2ccc(C)cc2)CC1 [Compound A-578, N-{2-[4-(methoxymethyl)-4-methylpiperidin-1-yl]phenyl}-1-(4-methylphenyl)methanesulfonamide] | 2.01 to 8 |
| C[C@@H]1CN(CC2CCN(c3c(F)cccc3NS(=O)(=O)c3ccc(S(=O)(=O)N4CCC4)cc3)CC2)C[C@H](C)O1 [Compound A-765, 4-(azetidine-1-sulfonyl)-N-[2-(4-{[(2R,6S)-2,6-dimethylmorpholin-4-yl]methyl}piperidin-1-yl)-3-fluorophenyl]benzene-1-sulfonamide] | ≤ 2 |
| CC(C1CCN(c2c(F)cccc2NS(=O)(=O)c2ccc(S(=O)(=O)N(C)C)cc2)CC1)N1C[C@@H](C)O[C@@H](C)C1 (stereo partly drawn) [Compound A-748, N4-[2-(4-{1-[(2R,6S)-2,6-dimethylmorpholin-4-yl]ethyl}piperidin-1-yl)-3-fluorophenyl]-N1,N1-dimethylbenzene-1,4-disulfonamide] | ≤ 2 |
| COc1ccc(S(=O)(=O)Nc2ccccc2N2CCC(c3ncc(Cl)cc3F)CC2)cc1 [Compound A-147, N-{2-[4-(5-chloro-3-fluoropyridin-2-yl)piperidin-1-yl]phenyl}-4-methoxybenzene-1-sulfonamide] | 2.01 to 8 |
